The results in this text go back to PubChem BioAssay (NCI).

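Exposure lasted 48 hours, with cells grown in 96-well plates and compounds tested at five concentrations. Abbreviation: GI50, concentration required for 50% inhibition of growth. TGI: total growth inhibition.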

Holding throughout (assay): growth of human tumour cells (NCI), 48 h
Test [1] concerns TK-10 renal.
The subject of test [2] is MDA-MB-231 breast.
The subject of test [3] is NCI-H23 lung.
In test [4] the test system is HCC-2998 colon.
The subject of test [5] is HOP-62 NSCLC.
Test [6] deals with M14 melanoma.
The test system of test [7] is EKVX NSCLC.
The test system of test [8] is OVCAR-8 ovarian.
Test [9] relates to OVCAR-4 ovarian.
For test [10], the system named is LOX IMVI melanoma.

`CS(=O)(=O)CCNCc1coc(-c2ccc3ncnc(Nc4ccc(OCc5ccccc5)cc4)c3c2)c1`: the GI50 is 1.95 µM in test [1]; 4.15 µM in [2]; 9.18 µM in test [3]; 4.16 µM in test [4]; 5.03 µM in test [5]; 4.44 µM in [6]. Further, the GI50 was 1.25 µM in [7], 8.66 µM in [8], 5.94 µM in test [9] and 4.27 µM in [10]. The TGI is 12.2 µM in [1]; 8.26 µM in test [2]; > 25 µM in test [3]; 7.91 µM in test [4]; 11.1 µM in test [5]; 9.11 µM in test [6]. Also, the TGI in [7] is > 25 µM; in [8], > 25 µM; in test [9], > 25 µM; in test [10], 8.81 µM.

Consider `O=C1C=CC(=O)C2C1C1(Cl)C(Cl)=C(Cl)C2(Cl)C1(Cl)Cl` (stereo not drawn), for which the GI50 was 8.07 µM in test [1]; 3.62 µM in test [2]; 4.85 µM in test [3]; 6.45 µM in test [4]; 10.6 µM in test [5]; 3.35 µM in test [6]. In addition, the GI50 in [7] was 1.56 µM; in test [8], 10.1 µM; in [9], 7.38 µM; in test [10], 4.05 µM. The TGI came out at 81 µM in test [1]; 16.4 µM in test [2]; 26.3 µM in test [3]; 20.4 µM in test [4]; 26.2 µM in [5]; 13.3 µM in test [6]. The TGI in [7] is 7.48 µM; in test [8], 48.6 µM; in test [9], > 100 µM; in test [10], 16.2 µM.

Regarding `COC(=O)c1ccc2[nH]c(O)c(C(=Nc3ccc(N(C)C(=O)CN4CCN(C)CC4)cc3)c3ccc4c(c3)OCO4)c2c1`, the GI50 in test [1] is 1.36 µM; in test [2] it was 1.08 µM; in test [3], 0.612 µM; in [4], 1 µM; in [5], 0.939 µM; in test [6] it was 0.538 µM. Further, the GI50 in [7] is 1.4 µM; in [8], 0.774 µM; in test [9] it was 0.761 µM; in test [10] it was 0.415 µM. For the same molecule, the TGI in test [1] was 3.14 µM; in [2], 2.76 µM; in test [3], 2.85 µM; in test [4], 2.69 µM; in test [5], 4.53 µM; in test [6], 1.8 µM. In addition, the TGI in test [7] was found to be 3.45 µM; in [8] it was 7.34 µM; in [9] it was 2.72 µM; in test [10], 1.9 µM.

Take `COc1cccc2c1C(=N)c1c(O)c3c(c(O)c1C2=O)C[C@@](O)(C(C)=O)C[C@@H]3O[C@H]1C[C@H](N)[C@H](O)[C@H](C)O1`: the TGI in test [1] was determined as 3.19 µM; in test [2], 7.74 µM; in test [3], 1.16 µM; in test [4], 2.51 µM; in test [5] it was 1.37 µM; in [6], 4.78 µM. Moreover, the TGI was 12.6 µM in test [7], 1.95 µM in test [8], 7.68 µM in test [9] and 1.49 µM in test [10]. In addition, the GI50 in test [2] was 1.26 µM; in test [3], 0.233 µM; in test [4] it was 0.474 µM; in test [5], 0.152 µM; in test [6], 0.496 µM; in test [7], 2.53 µM. The GI50 in test [8] is 0.327 µM; in test [10], 0.178 µM.

With `O=C(/C=C/c1ccccc1)Nc1ncc(Cc2ccccc2Cl)s1`, the GI50 was > 100 µM in [1]; 0.668 µM in test [2]; 0.708 µM in test [3]; 0.361 µM in [4]; 0.505 µM in [5]; 0.236 µM in [6]. Moreover, the GI50 in test [7] is 0.571 µM; in test [8], 0.509 µM; in test [9], > 100 µM; in test [10] it was 0.426 µM. Further, the TGI in [1], in [2], in test [3], in [4], in [5] and in test [6] was > 100 µM each time. Moreover, the TGI in test [7], in test [8], in test [9] and in test [10] was > 100 µM in each case.

Turning to `CC1(C)N=C(N)N=C(N)N1c1ccc(CCC(=O)Nc2ccc(S(=O)(=O)F)cc2)c(Cl)c1`, the GI50 is 0.604 µM in [1]; > 64.9 µM in test [2]; 0.888 µM in [3]; 0.997 µM in test [4]; 1.86 µM in test [5]; 0.762 µM in [6]. Besides, the GI50 is 2.78 µM in test [7], 4.66 µM in test [8], 5.51 µM in test [9] and 0.402 µM in test [10]. The TGI in test [1], in test [2], in test [3], in test [4], in [5] and in [6] was > 100 µM throughout. For the same molecule, the TGI in test [7], in test [8], in test [9] and in test [10] was > 100 µM in each case.

In the case of `CCOc1cccc(/C=N/NC(=O)c2cccc(Nc3ccnc(C(F)(F)F)c3)c2)c1O`, the GI50 is 1.57 µM in test [1]; 0.888 µM in test [2]; 1.62 µM in [3]; 1.45 µM in [4]; 0.682 µM in test [5]; 1.22 µM in [6]. In addition, the GI50 was 1.55 µM in test [7], 1.12 µM in test [8], 0.723 µM in [9] and 0.473 µM in test [10]. Moreover, the TGI is 83.1 µM in [1]; > 91.1 µM in test [2]; 20.8 µM in [3]; > 100 µM in test [4]; 15.3 µM in [5]; 7.88 µM in test [6]. For the same molecule, the TGI in test [7] is > 64.5 µM; in test [8] it was 37 µM; in [9], 48.6 µM; in [10], > 26.6 µM.

On to `CC/C=C\C[C@H]1CC=C2C(=O)C=C[C@@H]2CC=CCCCC(=O)O[C@@H](CCCCC)CC=C2C(=O)C=C[C@@H]2CC=CCCCC(=O)O[C@@H](CCCCC)CC=C2C(=O)C=C[C@@H]2CC=CCCCC(=O)O[C@@H](CCCCC)CC=C2C(=O)C=C[C@@H]2CC=CCCCC(=O)O1`, for which the GI50 in test [1] is 3 µM; in test [2] it was 1.91 µM; in test [3], 2.34 µM; in test [4], 1.86 µM; in test [5] it was 1.71 µM; in test [6], 2.09 µM. Moreover, the GI50 in test [7] is 2.41 µM; in [8] it was 2.29 µM; in test [9], 2.2 µM; in test [10], 1.22 µM. Further, the TGI is > 7.9 µM in test [1]; 4.99 µM in test [2]; > 7.9 µM in test [3]; 4.07 µM in [4]; 3.86 µM in [5]; 7.46 µM in test [6]. Further, the TGI in test [7] is > 7.9 µM; in test [8], > 7.9 µM; in [9], > 7.9 µM; in [10], 2.47 µM.

As for `Cc1cc(Cl)ccc1OCC(=O)Nc1nc2c(Cl)cccc2s1`, the GI50 is 61.3 µM in test [1]; 16.2 µM in test [2]; 73 µM in [3]; > 100 µM in test [4]; 19.6 µM in test [5]; > 100 µM in test [6]. Also, the GI50 in test [7] is > 100 µM; in test [8], 15.9 µM; in test [9] it was 46.7 µM; in test [10] it was 9.82 µM. Further, the TGI in [1] is > 100 µM; in [2] it was 91.9 µM; in [3], > 100 µM; in test [4], > 100 µM; in [5], 55.1 µM; in test [6], > 100 µM. The TGI in [7] was > 100 µM; in [8], 29.4 µM; in test [9], > 100 µM; in test [10] it was 45.6 µM.

On to `O=c1[nH]c2ccccc2cc1-c1nc2ccc(Cl)cc2[nH]1`, for which the GI50 is 2.51 µM in test [1]; 3.25 µM in [2]; 4.7 µM in test [3]; 11 µM in test [4]; 6.79 µM in test [5]; 2.86 µM in test [6]. The GI50 is 2.35 µM in test [7], 6.51 µM in [8], 5.09 µM in test [9] and 4.43 µM in [10]. The TGI in test [1] was > 100 µM; in test [2], 85.9 µM; in [3] it was > 100 µM; in test [4] it was > 100 µM; in test [5], 59.3 µM; in [6] it was > 100 µM. Also, the TGI in [7], in test [8], in test [9] and in [10] was > 100 µM throughout.

Turning to `CCCOC(=O)N[C@H]1CCc2c(Cl)c(OC)c(OC)c(OC)c2-c2ccc(SC)c(=O)cc21`, the GI50 in test [1] is 5.04 µM; in [2] it was < 0.01 µM; in [3], < 0.01 µM; in test [4], < 0.0112 µM; in test [5], 0.0101 µM; in test [6] it was < 0.01 µM. Also, the GI50 was < 0.01 µM in [7], < 0.0122 µM in test [8], < 0.012 µM in test [9] and < 0.01 µM in [10]. In addition, the TGI in test [1] is > 88.4 µM; in test [2] it was 4.71 µM; in [3], 32.5 µM; in test [4], 0.7 µM; in test [5], 50.9 µM; in test [6], 4.47 µM. Besides, the TGI in [7] is > 100 µM; in [8], > 100 µM; in test [9] it was > 100 µM; in test [10], 13 µM.

As to `CN(c1ccc(NC(=O)Nc2c(Cl)cccc2Cl)cc1)c1ccnc(Nc2cccc(CS(C)(=O)=O)c2)n1`, the GI50 in test [1] was 3.98 µM; in test [2], 4.49 µM; in test [3], 2.68 µM; in [4], 4.78 µM; in [5], 3.71 µM; in test [6], 2.64 µM. The GI50 in [7] is 6.31 µM; in test [8], 2.31 µM; in test [9] it was 3.12 µM; in test [10], 2.37 µM. Further, the TGI in test [1] was 9.02 µM; in test [2], 16.9 µM; in test [3], 18.5 µM; in test [4], 16.8 µM; in test [5], 11.9 µM; in test [6], 11.6 µM. Further, the TGI in test [7] is > 25 µM; in test [8], 6.82 µM; in test [9] it was 12.5 µM; in test [10], > 14.7 µM.
